Test results as given in publication PMC6409085, “Three odorant-binding proteins are involved in the behavioral response of Sogatella furcifera to rice plant volatiles” (PeerJ, 2019).
Values joined by “and” are separate entries in the source; they are usually repeats but may differ in a detail not shown here. Identical values can stand only once.

What was measured:
Experiment in all cases: biochemical
Assay type in all cases: binding
SfurOBP1 = SfurOBP1 (Sogatella furcifera, UniProt V5T8N5); details: for Fluorescence competitive binding assay, fluorescence intensity: OBP1, three replicate columns
Sequence of SfurOBP1 (V5T8N5 entry or part of it): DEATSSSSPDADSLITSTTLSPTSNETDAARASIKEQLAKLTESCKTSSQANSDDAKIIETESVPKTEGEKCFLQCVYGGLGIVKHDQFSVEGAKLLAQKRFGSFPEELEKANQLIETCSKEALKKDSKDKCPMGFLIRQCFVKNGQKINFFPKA
Protocol: (§1) Thirty-six rice odorants ([He et al., 2014]; [Wang et al., 2017]) and 1-N-phenyl-naphthylamine (1-NPN) were purchased from Sigma-Aldrich (St Louis, MO, USA). These odorants and 1-NPN were dissolved in high-performance liquid chromatography (HPLC) purify grade methanol for 1.0 mM as work solution.
(§2) Fluorescence competitive binding assays were performed on Tecan Spark 10M (Tecan Group Ltd., Männedorf, Switzerland) with the F96 Black ELIAS Plate (Sangon) ([Khuhro et al., 2017]; [Liu et al., 2017]). The solutions were excited at 337 nm and emission spectra were recorded between 390 and 490 nm. First, to test the binding constants of 1-NPN to the SfurOBPs, a 2.0 µM solution of protein in 50 mM Tris-HCl (pH = 7.4) was titrated with 1 mM 1-NPN to achieve virous concentrations. Next, the competitive binding of each odorant was measured using the 1-NPN as fluorescent reporter and odorant as competitor. The concentrations of protein and 1-NPN were both 2.0 µM, the odorant added after protein and 1-NPN added into the well of ELIAS Plate for 2 min. The final concentrations of each competitor were 2, 4, 6, 8, 10, 12, 14, 16, 18 and 20 µM. After 2 min of odorant added, the fluorescence intensity was measured and recorded. The volume of mixed solution in each well was maintained at 250 µL. Each interaction was performed in triplicates.
(§3) GraphPad Prism 7.0 software (GraphPad Software, Inc., La Jolla, CA, USA) was used to calculated and generated the binding constants (K1−NPN) of 1-NPN to SfurOBPs and relative Scatchard plots ([Ban et al., 2003]; [Li et al., 2016]). Dissociation constant (Ki) of each odorant to SfurOBP was computed from the corresponding IC50 value (the half maximal inhibitory concentration), using the following equation: Ki=[IC50]/(1 + [1-NPN]/K1−NPN), where [1-NPN] is the free concentration of 1-NPN and K1−NPN is the dissociation constant of the complex protein/1-NPN.

SfurOBP11 = SfurOBP11 (Sogatella furcifera, UniProt V5T6E3)
Sequence of SfurOBP11 (V5T6E3 entry or part of it): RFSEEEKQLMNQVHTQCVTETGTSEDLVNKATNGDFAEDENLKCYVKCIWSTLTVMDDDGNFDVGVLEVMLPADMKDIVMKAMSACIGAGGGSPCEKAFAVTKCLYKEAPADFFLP
Protocol: as §1, §2, §3

SfurOBP2 = SfurOBP2 (Sogatella furcifera, UniProt V5T759)
Sequence of SfurOBP2 (V5T759 entry or part of it): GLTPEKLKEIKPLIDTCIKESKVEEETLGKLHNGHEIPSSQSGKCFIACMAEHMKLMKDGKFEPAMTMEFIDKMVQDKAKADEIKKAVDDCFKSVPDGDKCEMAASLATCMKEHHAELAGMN
Protocol: as §1, §2, §3

SfurOBP3 = SfurOBP3 (Sogatella furcifera, UniProt V5T818); details: for Fluorescence competitive binding assay, fluorescence intensity: OBP3, three replicate columns
Sequence of SfurOBP3 (V5T818 entry or part of it): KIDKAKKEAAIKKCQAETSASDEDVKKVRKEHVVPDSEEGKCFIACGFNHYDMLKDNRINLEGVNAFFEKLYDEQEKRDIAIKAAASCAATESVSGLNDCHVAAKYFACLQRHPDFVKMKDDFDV
Protocol: as §1, §2, §3

Compound: c1ccc2ccccc2c1 [naphthalene]
- IC50 (SfurOBP1): > 20 µM
- Fluorescence competitive binding assay, fluorescence intensity (SfurOBP1; ligand concentration 2 (μM)): 5483 and 5608 and 5501
- Fluorescence competitive binding assay, fluorescence intensity (SfurOBP1; ligand concentration 4 (μM)): 5830 and 5745 and 5659
- Fluorescence competitive binding assay, fluorescence intensity (SfurOBP1; ligand concentration 6 (μM)): 5799 and 5826 and 5942
- Fluorescence competitive binding assay, fluorescence intensity (SfurOBP1; ligand concentration 8 (μM)): 6002 and 5983 and 5964
- Fluorescence competitive binding assay, fluorescence intensity (SfurOBP1; ligand concentration 10 (μM)): 5834 and 6388 and 6102
- Fluorescence competitive binding assay, fluorescence intensity (SfurOBP1; ligand concentration 12 (μM)): 6285 and 6121 and 6209
- Fluorescence competitive binding assay, fluorescence intensity (SfurOBP1; ligand concentration 14 (μM)): 6231 and 6194 and 6297
- Fluorescence competitive binding assay, fluorescence intensity (SfurOBP1; ligand concentration 16 (μM)): 6398 and 6743 and 6035
- Fluorescence competitive binding assay, fluorescence intensity (SfurOBP1; ligand concentration 18 (μM)): 6548 and 7178 and 7195
- Fluorescence competitive binding assay, fluorescence intensity (SfurOBP1; ligand concentration 20 (μM)): 7389 and 7177 and 6994
- IC50 (SfurOBP11): > 20 µM
- Fluorescence intensity, fluorescence competitive binding assay, OBP11 (SfurOBP11; ligand concentration 2, replicate 1): 34403
- Fluorescence intensity, fluorescence competitive binding assay, OBP11 (SfurOBP11; ligand concentration 2, replicate 2): 32473
- Fluorescence intensity, fluorescence competitive binding assay, OBP11 (SfurOBP11; ligand concentration 2, replicate 3): 34898
- Fluorescence intensity, fluorescence competitive binding assay, OBP11 (SfurOBP11; ligand concentration 4, replicate 1): 34130
- Fluorescence intensity, fluorescence competitive binding assay, OBP11 (SfurOBP11; ligand concentration 4, replicate 2): 34738
- Fluorescence intensity, fluorescence competitive binding assay, OBP11 (SfurOBP11; ligand concentration 4, replicate 3): 32492
- Fluorescence intensity, fluorescence competitive binding assay, OBP11 (SfurOBP11; ligand concentration 6, replicate 1): 35498
- Fluorescence intensity, fluorescence competitive binding assay, OBP11 (SfurOBP11; ligand concentration 6, replicate 2): 33550
- Fluorescence intensity, fluorescence competitive binding assay, OBP11 (SfurOBP11; ligand concentration 6, replicate 3): 32552
- Fluorescence intensity, fluorescence competitive binding assay, OBP11 (SfurOBP11; ligand concentration 8, replicate 1): 32155
- Fluorescence intensity, fluorescence competitive binding assay, OBP11 (SfurOBP11; ligand concentration 8, replicate 2): 35048
- Fluorescence intensity, fluorescence competitive binding assay, OBP11 (SfurOBP11; ligand concentration 8, replicate 3): 30051
- Fluorescence intensity, fluorescence competitive binding assay, OBP11 (SfurOBP11; ligand concentration 10, replicate 1): 30839
- Fluorescence intensity, fluorescence competitive binding assay, OBP11 (SfurOBP11; ligand concentration 10, replicate 2): 29352
- Fluorescence intensity, fluorescence competitive binding assay, OBP11 (SfurOBP11; ligand concentration 10, replicate 3): 29736
- Fluorescence intensity, fluorescence competitive binding assay, OBP11 (SfurOBP11; ligand concentration 12, replicate 1): 30215
- Fluorescence intensity, fluorescence competitive binding assay, OBP11 (SfurOBP11; ligand concentration 12, replicate 2): 28382
- Fluorescence intensity, fluorescence competitive binding assay, OBP11 (SfurOBP11; ligand concentration 12, replicate 3): 27824
- Fluorescence intensity, fluorescence competitive binding assay, OBP11 (SfurOBP11; ligand concentration 14, replicate 1): 26586
- Fluorescence intensity, fluorescence competitive binding assay, OBP11 (SfurOBP11; ligand concentration 14, replicate 2): 26869
- Fluorescence intensity, fluorescence competitive binding assay, OBP11 (SfurOBP11; ligand concentration 14, replicate 3): 27309
- Fluorescence intensity, fluorescence competitive binding assay, OBP11 (SfurOBP11; ligand concentration 16, replicate 1): 25698
- Fluorescence intensity, fluorescence competitive binding assay, OBP11 (SfurOBP11; ligand concentration 16, replicate 2): 25045
- Fluorescence intensity, fluorescence competitive binding assay, OBP11 (SfurOBP11; ligand concentration 16, replicate 3): 25361
- Fluorescence intensity, fluorescence competitive binding assay, OBP11 (SfurOBP11; ligand concentration 18, replicate 1): 25004
- Fluorescence intensity, fluorescence competitive binding assay, OBP11 (SfurOBP11; ligand concentration 18, replicate 2): 25141
- Fluorescence intensity, fluorescence competitive binding assay, OBP11 (SfurOBP11; ligand concentration 18, replicate 3): 24946
- Fluorescence intensity, fluorescence competitive binding assay, OBP11 (SfurOBP11; ligand concentration 20, replicate 1): 23792
- Fluorescence intensity, fluorescence competitive binding assay, OBP11 (SfurOBP11; ligand concentration 20, replicate 2): 23804
- Fluorescence intensity, fluorescence competitive binding assay, OBP11 (SfurOBP11; ligand concentration 20, replicate 3): 23815
- IC50 (SfurOBP2): > 20 µM
- Fluorescence competitive binding assay, OBP2 (raw fluorescence reading) (SfurOBP2; ligand concentration 2 (unit not given), replicate column 1 of 3): 21005
- Fluorescence competitive binding assay, OBP2 (raw fluorescence reading) (SfurOBP2; ligand concentration 2 (unit not given), replicate column 2 of 3): 21502
- Fluorescence competitive binding assay, OBP2 (raw fluorescence reading) (SfurOBP2; ligand concentration 2 (unit not given), replicate column 3 of 3): 19080
- Fluorescence competitive binding assay, OBP2 (raw fluorescence reading) (SfurOBP2; ligand concentration 4 (unit not given), replicate column 1 of 3): 24365
- Fluorescence competitive binding assay, OBP2 (raw fluorescence reading) (SfurOBP2; ligand concentration 4 (unit not given), replicate column 2 of 3): 22710
- Fluorescence competitive binding assay, OBP2 (raw fluorescence reading) (SfurOBP2; ligand concentration 4 (unit not given), replicate column 3 of 3): 24844
- Fluorescence competitive binding assay, OBP2 (raw fluorescence reading) (SfurOBP2; ligand concentration 6 (unit not given), replicate column 1 of 3): 22191
- Fluorescence competitive binding assay, OBP2 (raw fluorescence reading) (SfurOBP2; ligand concentration 6 (unit not given), replicate column 2 of 3): 22417
- Fluorescence competitive binding assay, OBP2 (raw fluorescence reading) (SfurOBP2; ligand concentration 6 (unit not given), replicate column 3 of 3): 22519
- Fluorescence competitive binding assay, OBP2 (raw fluorescence reading) (SfurOBP2; ligand concentration 8 (unit not given), replicate column 1 of 3): 23158
- Fluorescence competitive binding assay, OBP2 (raw fluorescence reading) (SfurOBP2; ligand concentration 8 (unit not given), replicate column 2 of 3): 21663
- Fluorescence competitive binding assay, OBP2 (raw fluorescence reading) (SfurOBP2; ligand concentration 8 (unit not given), replicate column 3 of 3): 20781
- Fluorescence competitive binding assay, OBP2 (raw fluorescence reading) (SfurOBP2; ligand concentration 10 (unit not given), replicate column 1 of 3): 20596
- Fluorescence competitive binding assay, OBP2 (raw fluorescence reading) (SfurOBP2; ligand concentration 10 (unit not given), replicate column 2 of 3): 20292
- Fluorescence competitive binding assay, OBP2 (raw fluorescence reading) (SfurOBP2; ligand concentration 10 (unit not given), replicate column 3 of 3): 20233
- Fluorescence competitive binding assay, OBP2 (raw fluorescence reading) (SfurOBP2; ligand concentration 12 (unit not given), replicate column 1 of 3): 19697
- Fluorescence competitive binding assay, OBP2 (raw fluorescence reading) (SfurOBP2; ligand concentration 12 (unit not given), replicate column 2 of 3): 18134
- Fluorescence competitive binding assay, OBP2 (raw fluorescence reading) (SfurOBP2; ligand concentration 12 (unit not given), replicate column 3 of 3): 19454
- Fluorescence competitive binding assay, OBP2 (raw fluorescence reading) (SfurOBP2; ligand concentration 14 (unit not given), replicate column 1 of 3): 17572
- Fluorescence competitive binding assay, OBP2 (raw fluorescence reading) (SfurOBP2; ligand concentration 14 (unit not given), replicate column 2 of 3): 18013
- Fluorescence competitive binding assay, OBP2 (raw fluorescence reading) (SfurOBP2; ligand concentration 14 (unit not given), replicate column 3 of 3): 17420
- Fluorescence competitive binding assay, OBP2 (raw fluorescence reading) (SfurOBP2; ligand concentration 16 (unit not given), replicate column 1 of 3): 16408
- Fluorescence competitive binding assay, OBP2 (raw fluorescence reading) (SfurOBP2; ligand concentration 16 (unit not given), replicate column 2 of 3): 15544
- Fluorescence competitive binding assay, OBP2 (raw fluorescence reading) (SfurOBP2; ligand concentration 16 (unit not given), replicate column 3 of 3): 15169
- Fluorescence competitive binding assay, OBP2 (raw fluorescence reading) (SfurOBP2; ligand concentration 18 (unit not given), replicate column 1 of 3): 18334
- Fluorescence competitive binding assay, OBP2 (raw fluorescence reading) (SfurOBP2; ligand concentration 18 (unit not given), replicate column 2 of 3): 23371
- Fluorescence competitive binding assay, OBP2 (raw fluorescence reading) (SfurOBP2; ligand concentration 18 (unit not given), replicate column 3 of 3): 18960
- Fluorescence competitive binding assay, OBP2 (raw fluorescence reading) (SfurOBP2; ligand concentration 20 (unit not given), replicate column 1 of 3): 17296
- Fluorescence competitive binding assay, OBP2 (raw fluorescence reading) (SfurOBP2; ligand concentration 20 (unit not given), replicate column 2 of 3): 16882
- Fluorescence competitive binding assay, OBP2 (raw fluorescence reading) (SfurOBP2; ligand concentration 20 (unit not given), replicate column 3 of 3): 15413
- IC50 (SfurOBP3): > 20 µM
- Fluorescence competitive binding assay, fluorescence intensity (SfurOBP3; ligand concentration 2): 99229 and 86961 and 92264
- Fluorescence competitive binding assay, fluorescence intensity (SfurOBP3; ligand concentration 4): 97193 and 95605 and 87600
- Fluorescence competitive binding assay, fluorescence intensity (SfurOBP3; ligand concentration 6): 102900 and 102445 and 98166
- Fluorescence competitive binding assay, fluorescence intensity (SfurOBP3; ligand concentration 8): 100522 and 107674 and 104095
- Fluorescence competitive binding assay, fluorescence intensity (SfurOBP3; ligand concentration 10): 49630 and 50618 and 48648
- Fluorescence competitive binding assay, fluorescence intensity (SfurOBP3; ligand concentration 12): 46251 and 47333 and 45186
- Fluorescence competitive binding assay, fluorescence intensity (SfurOBP3; ligand concentration 14): 39681 and 44579 and 42492
- Fluorescence competitive binding assay, fluorescence intensity (SfurOBP3; ligand concentration 16): 42940 and 41521 and 40287
- Fluorescence competitive binding assay, fluorescence intensity (SfurOBP3; ligand concentration 18): 51522 and 51973 and 51748
- Fluorescence competitive binding assay, fluorescence intensity (SfurOBP3; ligand concentration 20): 50731 and 60428 and 55580
